Reference: patent US11357779B2 (G1 Therapeutics, Inc., priority 2018, dated 2022)

Test system: HR+, HER2− locally advanced or metastatic breast cancer
Assay: Clinical efficacy of Form B of Compound II plus fulvestrant, RECIST Version 1.1
Assay type: in vivo, human
Details: FIG. 3, FIG. 4; with fulvestrant
Description: Target lesions in subjects from Example 1 were evaluated every 8 weeks using the RECIST, Version 1.1 criteria (Eisenhower 2009) as follows: • Complete Response (CR): Disappearance of all target lesions. Any pathological lymph nodes (whether target or nontarget) must have reduction in short axis to <10 mm. • Partial Response (PR): At least a 30% decrease in the sum of diameters of target lesions, taking as reference the baseline sum of diameters. • Progressive Disease (PD): At least a 20% increase in the sum of diameters of target lesions, taking as reference the smallest sum on study (this includes the baseline sum if that is the smallest on study). […] A response category of not evaluable (NE) was used when there was inadequate information to otherwise categorize the response status. • Non-target lesions were evaluated using the following criteria: • Complete Response (CR): Disappearance of all nontarget lesions and normalization of tumor marker level. […]
The overall response (OR) was determined by evaluation of the combination of target and nontarget lesion responses as outlined in Table 94.
The clinical efficacy of the combination of Form B of Compound II and fulvestrant for QD dosing for the subjects from Example 1 was evaluated using the above criteria. […]

CC(C)N1CCN(c2ccc(Nc3ncc4cc5n(c4n3)C3(CCCCC3)CNC5=O)nc2)CC1 [Form B]
anti-tumor activity (waterfall and spider plots, target lesions): effective anti-tumor activity
